Where “and” joins values, the source holds several entries; their conditions need not be identical. Equal entries are not always repeated.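 All cell lines were grown in 96-well plates and treated with compound for 48 hours. GI50 = concentration required for 50% inhibition of growth. Definition used: TGI = concentration required for complete inhibition of growth.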
Assays:
Assay in all cases: growth of human tumour cells (NCI), 48 h
A549 NSCLC = tested on: A549 NSCLC
HCT-116 colon = tested on: HCT-116 colon
KM12 colon = tested on: KM12 colon
MALME-3M melanoma = tested on: MALME-3M melanoma
NCI-H460 lung = tested on: NCI-H460 lung
SK-OV-3 ovarian = tested on: SK-OV-3 ovarian
UO-31 renal = tested on: UO-31 renal
BT-549 breast = tested on: BT-549 breast
PC-3 prostate = tested on: PC-3 prostate
SR leukemia = tested on: SR leukemia

Row | Structure (SMILES) | TGI (A549 NSCLC) | TGI (HCT-116 colon) | TGI (KM12 colon) | TGI (MALME-3M melanoma) | TGI (NCI-H460 lung) | TGI (SK-OV-3 ovarian) | TGI (UO-31 renal) | GI50 (A549 NSCLC) | GI50 (BT-549 breast) | TGI (BT-549 breast) | GI50 (HCT-116 colon) | GI50 (KM12 colon) | GI50 (NCI-H460 lung) | GI50 (PC-3 prostate) | TGI (PC-3 prostate) | GI50 (SK-OV-3 ovarian) | GI50 (SR leukemia) | TGI (SR leukemia) | GI50 (UO-31 renal) | GI50 (MALME-3M melanoma)
1 | O=C(N/C(=C\c1c(O)ccc2ccccc12)c1nc2ccccc2[nH]1)c1ccccc1 | > 100 µM | > 100 µM | > 100 µM | > 100 µM | > 100 µM | > 100 µM | > 100 µM |  |  |  |  |  |  |  |  |  |  |  |  | 
2 | O=c1cc(-c2ccccc2)oc2ccc(OC/C(=N/O)c3ccc(F)cc3)cc12 | > 50 µM | 9.05 µM | 6.01 µM |  | 12.1 µM | 30.7 µM | > 50 µM | 7.12 µM | 1.01 µM | 2.67 µM | 2.97 µM | 1.6 µM | 2.54 µM | 2.72 µM | 12.3 µM | 4.9 µM | 2.09 µM | > 50 µM | 10.8 µM | 
3 | CCCCCCCCCCCC[N+](C)(C)Cc1ccccc1 | 5.21 µM | 2.8 µM | 3.14 µM |  | 12.7 µM | 10.7 µM | 25.9 µM | 2.04 µM | 1.74 µM | 3.29 µM | 1.33 µM | 1.48 µM | 3.42 µM | 0.49 µM | 3.25 µM | 3.05 µM | 1.83 µM | 5.16 µM | 10 µM | 
4 | O=C(Nc1cc(Cl)ccc1Cl)c1cc2cccc(Br)c2oc1=O | > 100 µM | > 100 µM | > 100 µM | > 100 µM | > 100 µM | > 100 µM | > 100 µM |  |  |  |  |  |  |  |  |  |  |  |  | 
5 | O=c1nc(NC(c2ccccc2)(c2ccccc2)c2ccccc2)ccn1CCCl | > 100 µM | 37.1 µM | 31.2 µM | 29.2 µM | 36.4 µM |  | > 100 µM |  |  |  |  |  |  |  |  |  |  | 49.5 µM |  | 
6 | CSC(=Nc1ccccc1Cl)NC(=O)c1ccc(Br)cc1 | > 100 µM | > 100 µM | > 100 µM | > 100 µM | > 100 µM | > 100 µM | > 100 µM |  |  |  |  |  |  |  |  |  |  | > 100 µM |  | 
7 | COc1cc(O)c(C(=O)CC(C)=O)c(OC)c1 | > 100 µM | > 100 µM | > 100 µM | > 100 µM | > 100 µM | > 100 µM | > 100 µM |  |  |  |  |  |  |  |  |  |  |  |  | 
8 | CCCN(CCC)CCc1cc(C(C)=O)n(S(=O)(=O)c2ccc(C)cc2)c1 | > 100 µM | > 100 µM | > 100 µM | > 100 µM | > 100 µM | > 100 µM | > 100 µM |  |  |  |  |  |  |  |  |  |  | > 100 µM |  | 
9 | CCNc1cc2oc(=O)cc(C(F)(F)F)c2cc1C | > 100 µM | > 100 µM | > 100 µM |  | > 100 µM | > 100 µM | > 100 µM |  |  | > 100 µM |  |  |  |  | > 100 µM |  |  |  |  | 
10 | CCN(CCCl)CCCCCNc1c2ccccc2nc2ccc(OC)cc12 | 4.4 µM | 1.43 µM | 1.81 µM | 5.93 µM | 1.51 µM | 3.62 µM | 12.7 µM |  |  |  |  |  |  |  |  |  |  |  |  | 
11 | O=C1C=C2C=CC3CC2(O1)C1CCCCN31 (stereo unspecified) | > 100 µM and 63.4 µM | 30.3 µM and 26.6 µM and > 100 µM | 70.7 µM and 28.5 µM and 57.6 µM | 44.4 µM | 96.3 µM and 67.1 µM and > 100 µM | > 100 µM and 58 µM and 90.6 µM | > 100 µM | 31.8 µM and 22.9 µM and 64.4 µM | 13.8 µM and 10.8 µM and 37 µM | 51.3 µM and 30.3 µM and > 100 µM | 14.2 µM and 12.5 µM and 36.5 µM |  | 22.1 µM and 15.1 µM and 31.7 µM |  | > 100 µM and 73.4 µM |  |  |  | 14.5 µM and 13.8 µM and 38.3 µM | 
12 | C/C(=N\NC(=O)CC#N)C(CN1CCCCC1)C(c1ccccc1)c1c(O)c2ccccc2oc1=O (stereo unspecified) | > 100 µM | > 100 µM | > 100 µM | > 100 µM |  | > 100 µM | > 100 µM |  |  | > 100 µM |  |  |  |  | > 100 µM |  |  |  |  | 
13 | Cc1cc2c(c3nocc13)C(=O)c1ccccc1C2=O | > 100 µM |  | > 100 µM | > 100 µM | > 100 µM | > 100 µM | > 100 µM |  |  |  |  |  |  |  |  |  |  |  |  | 
14 | Cc1c(N)nc([C@H](CC(N)=O)NC[C@H](N)C(N)=O)nc1C(=O)N[C@H](C(=O)N[C@H](C)[C@@H](O)CC(=O)N[C@H](C(=O)NC(O[C@@H]1O[C@@H](C)[C@@H](N)[C@@H](O)[C@H]1O)C(O)c1nc(-c2nc(C(=O)NCCCCN)cs2)cs1)[C@@H](C)O)[C@@H](O[C@@H]1O[C@@H](CO)[C@@H](O)[C@H](O)[C@@H]1O[C@H]1O[C@H](CO)[C@@H](O)[C@H](OC(N)=O)[C@@H]1O)c1c[nH]cn1 (stereo partly specified) | > 50 µM | > 50 µM | > 50 µM |  | > 50 µM | > 50 µM | > 50 µM |  |  | > 50 µM |  |  |  |  | > 50 µM |  |  |  |  | 
15 | O=C(O)CNc1ccc(Cl)c(Cl)c1 | > 100 µM | 44.7 µM | 55.1 µM |  | 69.8 µM | > 100 µM | 71.1 µM |  |  | > 100 µM |  |  |  |  | 76 µM |  |  |  |  | 
16 | CCN(CC)CCCOc1ccc2ncnc(Nc3ccc(Oc4cccc(C(F)(F)F)c4)c(Cl)c3)c2c1 |  |  | 3.24 µM | 3.04 µM | 3.33 µM |  | 2.26 µM |  |  |  |  | 1.77 µM | 1.78 µM | 1.75 µM | 3.58 µM |  | 1.41 µM | 3.76 µM | 1.06 µM | 1.57 µM
17 | CN(C)CCNC(=O)c1cccc2nc3ccc4cccnc4c3nc12 | 9.65 µM | 2.43 µM | 3.54 µM |  | 1.01 µM | 8.53 µM | 2.4 µM |  |  |  |  |  |  |  |  |  |  |  |  | 
18 | O=C1NC(=O)C(=Cc2c3ccccc3cc3ccccc23)C(=O)N1 | > 100 µM | > 100 µM |  |  | > 100 µM | > 100 µM | > 100 µM |  |  |  |  |  |  |  |  |  |  |  |  | 
19 | CC(C)=O.O=C([O-])C(F)(F)F.O=C([O-])C(F)(F)F.O=C([O-])C(F)(F)F.O=C([O-])C(F)(F)F.[Rh+2].[Rh+2] | > 100 µM | > 100 µM | > 100 µM |  |  | > 100 µM | > 100 µM | > 100 µM |  |  | 54 µM | > 100 µM |  |  |  | > 100 µM | 22.2 µM | > 100 µM | > 100 µM | 
20 | CC(C)(CN1CCOCC1)C(=O)/C=C/c1ccc(/C=C/C(=O)C(C)(C)CN2CCOCC2)cc1 | 7.42 µM | 1.62 µM | 2.92 µM |  | 19.4 µM | 39.8 µM | 3.15 µM |  |  |  |  |  |  |  |  |  |  |  |  | 
21 | O=C1Nc2ccccc2/C1=C\c1cccc(/C=C2/C(=O)Nc3ccccc32)n1 |  | 0.296 µM | 1.02 µM | 1.08 µM | 1.85 µM | 2.76 µM | 2.37 µM |  |  |  | 0.155 µM | 0.282 µM | 0.669 µM | 0.654 µM | 3.31 µM | 1.21 µM | 0.231 µM | 4.88 µM | 0.779 µM | 0.3 µM

Source: PubChem BioAssay (NCI)
